# Measured values from patent US12508286B2, “Composition for treating spinal cord injury, comprising stem cells treated with novel compound” (YJ CERAPEUTICS INC., priority 2019, dated 2025).
# Test system: MSCs
# Experiment: Stem cell differentiation confirmed with neural lineage markers
# Format: cell-based
# Conditions: MSCs cultured in a medium containing the compound for 5 days
# Protocol: Referring to FIGS. 3 and 4, MSCs were cultured in a medium containing the compound for 5 days, and the differentiation status was confirmed using a neural lineage marker. As a result.
# MSCs of passage 3 received from Kangstem Biotech were maintained in a KSB3 basal medium containing 10% FBS (Gibco) and supplements.
# After passage 1, MSCs of passage 4 were stocked and stored in liquid nitrogen.
# Referring to FIG. 1, MSCs of passage 5 were seeded at 1 mL per well in 12 wells diluted to 1.1×10^4/mL.
# After 4 hours, the cells were treated with 40 μM of L1 or L3 or 30 μM of L2 (Formula 1).
# After three days, the medium was changed with a new medium, and the cells were treated with the compound in the same manner and then additionally cultured for two days.
smiles,measurement,value
"CCc1ccc(N(C(=O)COC)c2nc3cc(Cl)ccc3o2)cc1 [L2, N-(5-Chlorobenzo[d]oxazol-2-yl)-N-(4-ethylphenyl)-2-methoxyacetamide]",GFAP expression,hardly expressed
same,Nestin expression,hardly expressed
same,Tuj1-positive cells,≥ 90%
